Data: patent US20200405666A9, “TREATMENT OF SYMPTOMS ASSOCIATED WITH FEMALE GASTROPARESIS” (priority 2011, published 2020)

Tested on: symptoms of diabetic gastroparesis
Experiment: Phase 2 randomized, double-blind, placebo-controlled study METO-IN-002 of metoclopramide nasal spray: symptom scores (mGCSI-DD, GCSI-DD, PAGI-SYM, other endpoints)
Assay type: in vivo, human
Parameters: key to Stomach Fullness / Early Satiety / Feeling Full / Loss of Appetite / Bloating / Stomach Larger / Upper Abdominal Pain / Upper Abdominal Discomfort / mGCSI-DD (primary endpoint) / Nausea / Retching / Vomiting / Sheehan Disability Scales / Investigator Assessment of Overall Gastroparesis Severity / Subject Assessment of Overall Gastroparesis Severity / Investigator Assessment of Overall Treatment Effect / Subject Assessment of Overall Treatment Effect / Days w/o Vomiting / Days w/o Nausea / Days w/o Vomiting or Nausea / Days w/o Upper Abdominal Pain or Upper Abdominal Discomfort / Nausea Response by Response Threshold / GCSI-DD / Days w/o Vomiting or Retching &, No Use of Rescue Medication / Nausea Responder Analysis / Overall Severity of Gastroparesis Symptoms - Subject / PAGI-SYM Questionnaire / Nausea/Vomiting (listed under PAGI-SYM Questionnaire) / Bloating (listed under PAGI-SYM Questionnaire) / Upper Abdominal Pain/Discomfort (listed under PAGI-SYM Questionnaire) / Early Satiety (listed under PAGI-SYM Questionnaire): A=Favors Active; P=Favors Placebo
Conditions: for Statistically significant improvement in mGCSI-DD score (in words): 10 mg IN and 14 mg IN arms, Baseline to Week 4
Method: Example 1: A Multicenter, Randomized, Double-Blind, Placebo-Controlled, Parallel Group, Dose-Ranging Clinical Study to Evaluate the Efficacy and Safety of Metoclopramide Nasal Spray Solution in Diabetic Subjects with Gastroparesis
The objectives of this study were to evaluate the safety and the effectiveness of two doses of metoclopramide nasal spray solution, 10 mg and 14 mg, compared to placebo in reducing the symptoms of diabetic gastroparesis and to assess the plasma concentrations of two doses of metoclopramide nasal spray in subjects with diabetic gastroparesis following a single dose and at steady state. The aforementioned dosages for the treatment and control of gastroparesis were administered before meals and/or before bed time. Subjects who met the entry criteria after the Washout Period (Day −7 to Day −1) were randomized using an IVRS, to metoclopramide nasal spray 10 mg, 14 mg, or placebo, in roughly equal numbers (approximately 1:1:1) using a predetermined randomization schedule employing permuted blocks. Randomization was preformed centrally.
Metoclopramide nasal spray solution, 200 mg/mL base (as monohydrochloride monohydrate) is a clear colorless to pale-yellow aqueous solution manufactured for Evoke Pharma. The metoclopramide nasal spray was packaged in a 10 mL amber glass vial mounted with a metered nasal spray pump. The metered dose vial delivered a 50 μL or 70 μL spray (10 mg or 14 mg of metoclopramide base respectively) with each actuation. One 10 mL vial contained sufficient metoclopramide nasal spray to deliver 120 doses of 10 mg or 14 mg.
A vehicle control was used as the placebo for metoclopramide nasal spray solution. The placebo spray was packaged in a 10 mL amber glass vial mounted with a metered nasal spray pump. The metered dose vial delivered a 50 μL spray with each actuation. One 10 mL vial contained sufficient placebo to deliver 120 doses. The delivery of either a 50 μL or 70 μL spray is indistinguishable to the subject or study staff.
A 7-day Washout Period preceded randomization. During this time, and for the duration of the study, subjects were asked to discontinue use of all medications that are known to ameliorate or exacerbate symptoms associated with diabetic gastroparesis. Subjects were trained on the use of an interactive voice response system (IVRS) to record the severity of nine gastroparesis symptoms of the GCSI-DD and additional symptoms such as: severity of abdominal pain and abdominal discomfort, number of hours of nausea, number of episodes of vomiting, and overall severity of gastroparesis symptoms in a daily diary. The IVRS was used during the treatment period for self-reported assessments. Subjects completed these diary assessments via the IVRS each evening.
Subjects with a mean GCSI-DD total score of <2.0 or >4.0 during the 7-day Washout Period were excluded from the study.
At the Randomization Visit (Day 0), the Patient Assessment of Upper Gastrointestinal Disorders Symptoms (PAGI-SYM) Questionnaire, and disability questionnaires were administered to the subject and the Investigator and subject assessed overall gastroparesis symptom severity (OGS) prior to taking study drug. Subjects began taking the study drug at the clinical site with a single dose on Day 0. The subjects returned to the clinic for safety and efficacy evaluations on Visits 4, 5, 6, and 7 (Days 7, 14, 21, and 28).
At each scheduled study visit to the clinical study site, the IVRS daily diary compliance was reviewed. In addition, at Visit 5 (Day 14), the PAGI-SYM Questionnaire was administered to the subject and the Investigator and subject assessed OGS severity. At the Final Visit (Day 28) subjects took their last dose of study drug at the clinical site and returned their vial of unused/remaining study drug. The subject completed the PAGI-SYM, and disability questionnaires. The Investigator and subject assessed OGS and overall treatment effect (OTE). […]

[1] = all subjects (ITT), 10 mg IN four times daily
[2] = all subjects (ITT), 14 mg IN four times daily
[3] = females, 10 mg IN four times daily
[4] = females, 10 mg IN four times daily, Week 4, vs placebo
[5] = females, 10 mg IN four times daily, listed as Metoclopramide
[6] = females, 14 mg IN four times daily
[7] = females, 14 mg IN four times daily, Week 4, vs placebo

With `CCN(CC)CCNC(=O)c1cc(Cl)c(N)cc1OC` [metoclopramide, -amino-5-chloro-N-(2-(diethylamino)ethyl)-2-methoxybenzamide] the “Mean Change from Baseline to Week 4 in mGCSI-DD” value (from here on “Mean Change from Baseline”) [1] was −1.2, the “Mean mGCSI-DD total score at Week 4” value [1] was 1.6 and the “Mean Change from Baseline” value [2] was −1.2. For the same compound, the “Mean mGCSI-DD total score at Week 4” value [2] was 1.7, the “Statistically significant improvement in mGCSI-DD score (in words)” value (all subjects) was “neither Treatment Arm experienced statistically significant improvement” and the “Difference of Least Square Means, mGCSI-DD change from Baseline to Week 4” value (all subjects, 10 mg IN vs placebo) was −0.20. For the same compound, the “Difference of Least Square Means, mGCSI-DD change from Baseline to Week 4” value (all subjects, 14 mg IN vs Metoclopramide 10 mg) was 0.06, the “Difference of Least Square Means, mGCSI-DD change from Baseline to Week 4” value (all subjects, 14 mg IN vs placebo) was −0.14 and the “Symptoms with statistical separation or improved trends compared to placebo” value (female subjects, 11 symptoms collected) was 11 of 11. The “Statistically significant improvement in mGCSI-DD score (in words)” value (females) was “statistically significant improvement”, the “Mean Change from Baseline” value [3] was −1.2 (−1.2) and the “Mean mGCSI-DD total score at Week 4” value [3] was 1.6 (1.6). The Bloating [4] was “A”, the “Bloating (listed under PAGI-SYM Questionnaire)” value [4] was “A” and the “Days w/o Nausea” value [4] was “A (p < 0.05)”. For the same compound, the “Days w/o Upper Abdominal Pain or Upper Abdominal Discomfort” value [4] was “A”, the “Days w/o Vomiting” value [4] was “A” and the “Days w/o Vomiting or Nausea” value [4] was “A (p < 0.05)”. For the same compound, the “Days w/o Vomiting or Retching &, No Use of Rescue Medication” value [4] was “A”, the “Early Satiety” value [4] was “A” and the “Early Satiety (listed under PAGI-SYM Questionnaire)” value [4] was “A”. For the same compound, the “Feeling Full” value [4] was “A (p < 0.05)”, the GCSI-DD [4] was “A (p < 0.05)” and the “Investigator Assessment of Overall Gastroparesis Severity” value [4] was “A”. For the same compound, the “Investigator Assessment of Overall Treatment Effect” value [4] was “P”, the “Loss of Appetite” value [4] was “A” and the Nausea [4] was “A (p < 0.05)”. For the same compound, the “Nausea Responder Analysis” value [4] was “A”, the “Nausea Response by Response Threshold” value [4] was “A (p < 0.05)” and the “Nausea/Vomiting (listed under PAGI-SYM Questionnaire)” value [4] was “A”. The “Overall Severity of Gastroparesis Symptoms - Subject” value [4] was “A (p < 0.05)”, the “PAGI-SYM Questionnaire” value [4] was “A” and the Retching [4] was “A”. The “Sheehan Disability Scales” value [4] was “A”, the “Stomach Fullness” value [4] was “A” and the “Stomach Larger” value [4] was “A”. For the same compound, the “Subject Assessment of Overall Gastroparesis Severity” value [4] was “A”, the “Subject Assessment of Overall Treatment Effect” value [4] was “A” and the “Upper Abdominal Discomfort” value [4] was “A”. For the same compound, the “Upper Abdominal Pain” value [4] was “A (p < 0.05)”, the “Upper Abdominal Pain/Discomfort (listed under PAGI-SYM Questionnaire)” value [4] was “A” and the Vomiting [4] was “A”. The “mGCSI-DD (primary endpoint)” value [4] was “A (p < 0.05)”, the “Mean Change from Baseline” value [5] was −1.2 and the “Mean mGCSI-DD total score at Week 4” value [5] was 1.6. For the same compound, the “Difference of Least Square Means, mGCSI-DD change from Baseline to Week 4” value (females, 10 mg IN vs placebo) was −0.38, the “Mean Change from Baseline” value [6] was −1.3 and the “Mean mGCSI-DD total score at Week 4” value [6] was 1.7 (1.7). For the same compound, the Bloating [7] was “A”, the “Bloating (listed under PAGI-SYM Questionnaire)” value [7] was “A” and the “Days w/o Nausea” value [7] was “A (p < 0.05)”. The “Days w/o Upper Abdominal Pain or Upper Abdominal Discomfort” value [7] was “P”, the “Days w/o Vomiting” value [7] was “A” and the “Days w/o Vomiting or Nausea” value [7] was “A (p < 0.05)”. For the same compound, the “Days w/o Vomiting or Retching &, No Use of Rescue Medication” value [7] was “A”, the “Early Satiety” value [7] was “A” and the “Early Satiety (listed under PAGI-SYM Questionnaire)” value [7] was “A”. The “Feeling Full” value [7] was “A”, the GCSI-DD [7] was “A (p < 0.05)” and the “Investigator Assessment of Overall Gastroparesis Severity” value [7] was “A”. For the same compound, the “Investigator Assessment of Overall Treatment Effect” value [7] was “A”, the “Loss of Appetite” value [7] was “A” and the Nausea [7] was “A (p < 0.05)”. The “Nausea Responder Analysis” value [7] was “A (p < 0.05)”, the “Nausea Response by Response Threshold” value [7] was “A (p < 0.05)” and the “Nausea/Vomiting (listed under PAGI-SYM Questionnaire)” value [7] was “A (p < 0.05)”. The “Overall Severity of Gastroparesis Symptoms - Subject” value [7] was “A”, the “PAGI-SYM Questionnaire” value [7] was “A” and the Retching [7] was “A”. The “Sheehan Disability Scales” value [7] was “A”, the “Stomach Fullness” value [7] was “A” and the “Stomach Larger” value [7] was “A (p < 0.05)”. The “Subject Assessment of Overall Gastroparesis Severity” value [7] was “A”, the “Subject Assessment of Overall Treatment Effect” value [7] was “A” and the “Upper Abdominal Discomfort” value [7] was “A”. The “Upper Abdominal Pain” value [7] was “A (p < 0.05)”, the “Upper Abdominal Pain/Discomfort (listed under PAGI-SYM Questionnaire)” value [7] was “A” and the Vomiting [7] was “A”.
